Results taken from patent US10214567B2, “Tagged hepadnavirus E antigen and its use in screening antiviral substances” (Drexel University, priority 2014, dated 2019).
“Also recorded” adds a separate entry of the source.

System: HA-HBeAg production from HepBHAe13 cells
Assay: HA-HBeAg CLIA in HepBHAe13 cells treated with cccDNA formation inhibitors (96-well-plate)
Format: cell-based, Hepatitis B virus (HBV)
Conditions: tetracycline removed, compounds at indicated concentrations, 0.5% DMSO, day 12 post treatment (FIG. 11)
From the text: According to another aspect of the present invention, the in vitro assay method can be used to evaluate compounds/candidate molecules that suppress cccDNA formation. Briefly, cells can be seeded into culture wells and tetracycline can be omitted at the day when cell monolayer becomes confluent. Simultaneously, test compound can be added and tagged hepadnavirus e antigen (like HA-HBeAg) in the medium can be measured by ELISA at the end of treatment (approximately 6 days). […] As an expanding aspect of this in vitro assay method, it is worth to note that the reduction of tagged hepadnavirus e antigen (like HA-HBeAg) in this assay may also indicate that the compound has the potential to inhibit hepadnavirus (like HBV) DNA replication. Such possibility can be investigated through direct measurement of viral core DNA by Southern blot and/or qPCR. […]
FIG. 11. […] At day 12 post treatment, culture fluid was subjected to HA-HBeAg CLIA and readout was plotted as percentage (mean±SD) to control.
For chemiluminescence enzyme immunoassay (CLIA) detection of HA-tagged HBeAg, high sensitivity streptavidin coated plate (Black, cat#: 15525, Thermo Scientific) was washed by PBST (PBS plus 0.05% Tween 20) for 3 times, and then incubated with 50 μl of anti-HA-biotin (cat#: A00203, Genscript; 5 μg/ml in PBS) at RT for 30 min, followed by wash with 200 μl PBST for 3 times. […] The plate was read on a luminometer.

SMILES	HA-HBeAg level in culture fluid (CLIA, percentage to control)
Cc1nc2cc(NC(=O)c3ccc(S(=O)(=O)N(C)Cc4ccccc4)cc3)ccc2s1 [CCC-0346]	dose-dependent inhibition of HA-HBeAg production; also recorded: dose dependently reduced the HA-HBeAg level
O=C(CN(c1cc(C(F)(F)F)ccc1Cl)S(=O)(=O)c1ccccc1)NCc1ccncc1 [CCC-0975]	dose-dependent inhibition of HA-HBeAg production; also recorded: dose dependently reduced the HA-HBeAg level
